Measurements from patent publication EP4793271A1, “NEUROPROTECTIVE AGENT” (National Center of Neurology and Psychiatry, priority 2023, dated 2025).

What was measured:
[1] = biological target: T1, nicotinamide phosphoribosyl transferase (NAMPT) (Homo sapiens, UniProt P43490); assay: NAMPT activity measurement (NMN fluorescence detection); assay type: biochemical; settings: NAMPT recombinant protein, 10 µM Nam; for IC50: read-out: Evaluation on NAMPT inhibitory
T1 construct: purchased Medical & Biological Laboratories Co., Ltd. (MBL)
Summary of the method: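 Recombinant NAMPT reacted with 10 µM Nam, 0.5 µM PRPP, 2 µM ATP in Tris pH 7.4 buffer with MgCl2, DTT, BSA; product NMN quantified by fluorescence (ex 421/em 480 nm) after derivatization with 2-acetylbenzofuran. Compounds at 3 nM–10 µM; control-normalized signal used for IC50.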

[2] = system: primary cultured cells of mouse fetus-derived dorsal root ganglia (DRGs); assay: Suppression of axonal degeneration after axotomy in DRG explant culture; assay type: cell-based; settings: minimum concentration at which axonal degeneration was suppressed (DI 0.3 or less), 24 hours after axotomy; for minimal effective concentration: Mus musculus, read-out: Evaluation on protection against degeneration
Summary of the method: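 Embryonic ICR mouse DRG explants were cultured 7–8 days in nicotinamide-free neuronal medium with NGF, then axotomized by removing the cell bodies. Compound (100 pM–10 µM final, 0.1% DMSO) was added within 30 min, and neurites were imaged 24 h later. The result is the lowest concentration giving degeneration index ≤0.3.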

[3] = biological target: T2, hSARM1 (Homo sapiens, UniProt Q6SZW1); assay: Human SARM1 activity measurement in HEK293 cells transiently transfected with ΔN-hSARM1 (PC6 fluorescent probe); assay type: cell-based; parameters: expressed in transfected cells; host or cells: HEK293, pcDNA3 expression vector; settings: inhibition rate; compound 30 µM; PC6 50 µM; HEK293 cells expressing ΔN-hSARM1; approximately 48 hours from transfection; read-out: Evaluation on hSARM1 inhibitory
T2 sequence (Q6SZW1 28-724): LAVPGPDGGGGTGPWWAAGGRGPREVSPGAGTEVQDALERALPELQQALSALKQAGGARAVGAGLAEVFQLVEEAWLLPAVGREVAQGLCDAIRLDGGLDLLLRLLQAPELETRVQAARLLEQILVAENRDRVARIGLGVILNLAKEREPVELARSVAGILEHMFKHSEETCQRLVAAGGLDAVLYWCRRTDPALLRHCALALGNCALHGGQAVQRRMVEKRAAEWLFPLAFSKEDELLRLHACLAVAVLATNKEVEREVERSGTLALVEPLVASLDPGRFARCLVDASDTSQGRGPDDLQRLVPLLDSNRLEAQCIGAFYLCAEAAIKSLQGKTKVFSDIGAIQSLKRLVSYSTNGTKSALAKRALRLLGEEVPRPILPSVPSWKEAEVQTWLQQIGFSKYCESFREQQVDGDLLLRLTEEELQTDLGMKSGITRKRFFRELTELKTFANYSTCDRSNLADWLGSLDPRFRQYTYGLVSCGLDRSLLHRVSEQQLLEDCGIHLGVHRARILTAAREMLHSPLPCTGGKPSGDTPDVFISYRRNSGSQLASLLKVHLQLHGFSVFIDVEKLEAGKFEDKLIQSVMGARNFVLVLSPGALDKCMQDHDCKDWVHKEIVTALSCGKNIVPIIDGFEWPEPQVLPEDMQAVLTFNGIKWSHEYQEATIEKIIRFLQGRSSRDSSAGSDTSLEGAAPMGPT
Summary of the method: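 HEK293 cells in nicotinamide-free DMEM with 5 μM nicotinamide, transiently transfected with mitochondrial-targeting-deleted ΔN-hSARM1; PC6 base-exchange fluorescent probe (50 μM) plus compound (30 μM) added ~8 h post-transfection. Fluorescence (ex 405/em 525 nm) read ~48 h from transfection; inhibition % versus transfected DMSO control, untransfected background subtracted.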

T1 sequence (P43490 whole entry, species assumed): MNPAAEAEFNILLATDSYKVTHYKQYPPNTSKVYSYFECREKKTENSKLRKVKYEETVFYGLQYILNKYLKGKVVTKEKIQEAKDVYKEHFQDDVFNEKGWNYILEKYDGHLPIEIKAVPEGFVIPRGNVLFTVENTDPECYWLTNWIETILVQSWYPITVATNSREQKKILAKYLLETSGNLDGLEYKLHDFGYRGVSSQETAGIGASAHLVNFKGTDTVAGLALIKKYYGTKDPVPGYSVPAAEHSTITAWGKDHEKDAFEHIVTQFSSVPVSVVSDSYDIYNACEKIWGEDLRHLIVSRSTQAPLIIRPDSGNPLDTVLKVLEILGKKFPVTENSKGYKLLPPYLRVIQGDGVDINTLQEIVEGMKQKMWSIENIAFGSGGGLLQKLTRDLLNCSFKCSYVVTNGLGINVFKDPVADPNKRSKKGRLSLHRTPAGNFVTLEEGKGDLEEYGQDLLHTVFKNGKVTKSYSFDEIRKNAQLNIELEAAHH

Row | Compound | IC50 [1] | minimal effective concentration [2] | inhibition at 30 µM [3] | Evaluation on NAMPT inhibitory [1] | Evaluation on protection against degeneration [2]
1 | O=C(/C=C/c1cccnc1)Nc1ccc(CNC(=O)c2ccccc2)cc1 [compound 64] | ≥ 100 nM | ≤ 0.01 µM | > 75% | – | –
2 | N#Cc1ccc(C(=O)Nc2ccc(CNC(=O)c3cccnc3)cn2)cc1 [compound 73] | – | ≤ 0.01 µM | > 50% | ○ | –
3 | Cc1ccccc1C(=O)Nc1ccc(CNC(=O)c2cccnc2)cn1 [Compound 130] | – | ≤ 0.01 µM | > 75% | ○ | –
4 | O=C(NCc1ccc(NC(=O)c2ccc(F)cc2F)nc1)c1cccnc1 [Compound 139] | – | ≤ 0.01 µM | > 25% | ○ | –
5 | O=C(/C=C/c1cccnc1)NCCCOc1ccc(CNC(=O)c2ccccc2)cc1 [compound 16] | ≥ 100 nM | ≤ 0.01 µM | > 75% | – | –
6 | COCOc1cccc(OCCCNC(=O)c2cccnc2)c1 [compound 25] | – | – | > 75% | ○ | B (0.01 µM < B ≤ 0.1 µM)
7 | CC(C)(C)CC(=O)Nc1ccc(CNC(=O)c2cccnc2)cn1 [Compound 182] | ≥ 100 nM | ≤ 0.01 µM | > 75% | – | –
8 | O=C(NCc1ccc(NC(=O)c2ccc3ccccc3c2)nc1)c1cccnc1 [Compound 127] | ≥ 100 nM | ≤ 0.01 µM | > 75% | – | –
9 | COCOc1cccc(OCCOCCNC(=O)c2cccnc2)c1 [compound 30] | – | 0.01 to 0.1 µM | > 50% | ○ | –
10 | O=C(NCc1ccc(NC(=O)c2ccncc2)nc1)c1cccnc1 [Compound 124] | – | ≤ 0.01 µM | > 75% | ○ | –
11 | O=C(NCc1ccc(NC(=O)C2CCOCC2)cc1)c1cccnc1 [compound 108] | ≥ 100 nM | ≤ 0.01 µM | > 75% | – | –
12 | COc1cccc(OCCOCCNC(=O)/C=C/c2cccnc2)c1 [compound 28] | ≥ 100 nM | ≤ 0.01 µM | > 75% | – | –
13 | O=C(NCc1ccc(NC(=O)c2cccc(Cl)c2)nc1)c1cccnc1 [Compound 132] | – | ≤ 0.01 µM | > 75% | ○ | –
14 | O=C(COc1ccc(OCc2ccccc2)cc1)Nc1ccc(CNC(=O)c2cccnc2)cn1 [Compound 178] | ≥ 100 nM | 0.01 to 0.1 µM | > 75% | – | –
15 | O=C(NCc1ccc(NC(=O)c2ccc(F)cc2)nc1)c1cccnc1 [Compound 117] | – | ≤ 0.01 µM | > 75% | ○ | –
16 | O=C(CCc1ccc(C(F)(F)F)cc1)Nc1ccc(CNC(=O)c2cccnc2)cn1 [Compound 169] | – | ≤ 0.01 µM | > 75% | ○ | –
17 | CCCCCC(=O)Nc1ccc(CNC(=O)c2cccnc2)cn1 [Compound 160] | ≥ 100 nM | ≤ 0.01 µM | > 75% | – | –
18 | C#CCOc1ccc(C(=O)Nc2ccc(CNC(=O)c3cccnc3)cn2)cc1 [compound 91] | – | ≤ 0.01 µM | > 50% | ○ | –
19 | O=C(NCc1ccc(NC(=O)c2cccc(OC(F)(F)F)c2)nc1)c1cccnc1 [compound 86] | ≥ 100 nM | 0.01 to 0.1 µM | > 75% | – | –
20 | O=C(NCCCCCCNC(=O)c1cncc(O)c1)c1cccnc1 [compound 57] | ≥ 100 nM | 0.01 to 0.1 µM | > 75% | – | –
